Where two headings read alike, the source gives them in different places.
How the values were obtained:
Kv7.2/7.3 (KCNQ2/3) = target: T1, Kv7.2/7.3 (KCNQ2/3) (Homo sapiens, UniProt O43525+O43526); test: CHO-Kv7.2/7.3 (KCNQ2/3) 86Rb efflux assay; assay type: cell-based; settings: for Conc μM @ Max Flux: concentration at which maximal 86Rb flux was seen; for Fitted Max %: fit, maximum activation set at 100% of 70 mM KCl control stimulus; for Emax: read-out: Max Flux %
T1 construct: expressed in transfected cells; host or cells: CHO
Experimental: Compounds were tested at concentrations from 0.001 μM to 30 μM to generate 10-point concentration-response curve (CRC) (n=2). Retigabine and ML213 were included as control activators of Kv7.2/7.3 (KCNQ2/3). Data was normalized to ^86Rb flux elicited by application of extracellular buffer containing 70 mM KCl.
Data were fit with “maximum activation” set at 100% of 70 mM KCl control stimulus.

[1] = tested on: VU0463271-induced phenotype (KCC2 inhibition) in zebrafish larvae; test: animal or person; settings: for EC50: Danio rerio, read-out: in vivo EC50; for peak activity: concentration of peak effect, doses 2.5-320 uM, suppression of KCC2-inhibited phenotype in zebrafish
Experimental: To quantify the ability of the same drugs to reverse (or “rescue”) the phenotype caused by either 2.5 μM VU0463271 or 5 μM VU0240551, a rescue score between 0 (no rescue) and 1 (maximal theoretical rescue) was calculated (FIG. 2C). A rescue score incorporates and quantifies the degree of phenotypic reversal and the level of sedation in each concentration tested (see Materials and Methods below).
A diverse collection of 37,000 uncharacterized small molecules were used in a suppressor screen against either 2.5 μM VU0463271 (27,000 compounds) or 5 μM VU0240551 (10,000 compounds), along with 3,700 control wells treated with DMSO alone and 3,700 control wells treated with the KCC2 inhibitor. Each well of a 96-well plate containing at least about 8 zebrafish larvae was treated with a library compound or DMSO followed by treatment with the KCC2 inhibitor. Behavioral profiles pre- and post-treatment with the KCC2 inhibitor were evaluated using the behavioral assay battery described herein, and a detailed quantitative readout of about 15,000 time points was generated for each well. These behavioral profiles were used to calculate a screening score for each library compound, which incorporates and quantifies the rescue score and sedation index (see Materials and Methods).
In some cases, small molecules that alter the KCC2 inhibition phenotype may reverse the behavioral phenotype back to the normal, but could also elicit a new undesired phenotype, which is different from a normal behavior. To discriminate between these possibilities, vector algebra was used to compare each behavioral profile to the behavioral profile of DMSO-treated larvae and defined a value for the phenotypic distance from DMSO. The screen score of each compound was then plotted against its averaged phenotypic distance from DMSO (FIG. 3A) and MI (FIG. 3B) to filter out compounds that elicit a profile that is very different from the control one and compounds that reduce overall activity, respectively.
The reproducibility of the effects and the active concentration ranges of the 30 hits selected, as described above, were determined. Their rescue efficacies were retested in at least six concentrations and their rescue scores were also recalculated.
TT0023831 and six analogs were tested at a range of doses from 2.5-320 uM in a behavioral assay designed to assess the ability of compounds to suppress the effects of KCC2 inhibition. The graphs of FIG. 11 indicate the degree of suppression of the KCC2-inhibited phenotype, where a score of 1 represents complete restoration of KCC2-treated zebrafish to normal. […] Table 4 summarizes the estimated EC50 values and peak effect values for each compound.
A large number of fertilized zebrafish eggs (up to 20,000 embryos per day) were collected from group matings of wild type Ekkwill/Singapore zebrafish. Embryos were raised in hatching jars at 28° C. on a 14/10 hour light/dark cycle until 3 days post fertilization (dpf), then transferred to an incubator under the same conditions until 7 dpf. Groups of eight larvae (7 dpf) were distributed into the wells of a clear flat bottom square well 96-well plates filled with E3 medium (300 μl). Larvae were then incubated at 25° C. on the bench top for one-hour chemical treatment and subsequent experiments.
A library containing 37,000 uncharacterized small molecules was purchased from Life Chemicals and dissolved in DMSO at a stock concentration of 10 mM.

[2] = tested on: PTZ-induced behavior in zebrafish larvae; test: Suppression of PTZ-induced behavior in zebrafish larvae; assay type: in vivo
Experimental: Differences between behavioral profiles of larval zebrafish treated with KCC2 inhibitors and larval zebrafish treated with PTZ were investigated by evaluating the ability of traditional anti-seizure drugs to reverse their effects. Five drugs in at least six concentrations (by allocating 12 wells per concentration) were tested. These drugs included a benzodiazepine anxiolytic (diazepam), two AEDs that increase GABA levels in the synapse (tiagabine and valproate), a sodium channel blocker (phenytoin) and a synthetic neurosteroid GABAA positive allosteric modulator (PAM, ganaxolone).

[3] = 10-point CRC 0.001-30 μM, n=2, fit with maximum activation set at 100% of 70 mM KCl control, read-out: EC50
[4] = 86Rb flux normalized to 70 mM KCl control
[5] = Table 7, first line of values, read-out: EC50 (μM, raw)
[6] = Table 7, second, unlabelled line of values, read-out: EC50 (μM, raw)

| Structure (SMILES) | EC50 (Kv7.2/7.3 (KCNQ2/3); [3]) | Conc μM @ Max Flux (Kv7.2/7.3 (KCNQ2/3)) | Fitted Max % (Kv7.2/7.3 (KCNQ2/3)) | Emax (Kv7.2/7.3 (KCNQ2/3); [4]) | EC50 (Kv7.2/7.3 (KCNQ2/3); [5]) | EC50 (Kv7.2/7.3 (KCNQ2/3); [6]) | EC50 [1] | peak activity [1] | other results |
| --- | --- | --- | --- | --- | --- | --- | --- | --- | --- |
| Cc1cc(C)c(NC(=O)C2CC3CCC2C3)c(C)c1 (stereo not shown) [ML213, reference compound] | 0.02 µM | 0.3 µM | 98% |  |  |  |  |  | Max Flux % (Kv7.2/7.3 (KCNQ2/3); [4]): 109%; 86Rb flux elicited by reference activators (Kv7.2/7.3 (KCNQ2/3); EC50 values comparable to literature values): robust concentration-dependent |
| CCOC(=O)Nc1ccc(NCc2ccc(F)cc2)cc1N [Retigabine, reference compound] | 0.1 µM |  |  | 89% |  |  |  |  |  |
| CCCOc1nn(CCC)cc1C(=O)Nc1ccc(F)cc1F [TT0000349, N-(2,4-difluorophenyl)-3-propoxy-1-propyl-1H-pyrazole-4-carboxamide] | > 30 µM | 10 µM | 100% | 33% | 0.54 µM | > 30 µM |  |  |  |
| CCCOc1nn(CCC)cc1C(=O)Nc1cc(F)ccc1F [TT0000351, N-(2,5-difluorophenyl)-3-propoxy-1-propyl-1H-pyrazole-4-carboxamide] | > 30 µM | 10 µM | 100% | 33% | > 30 µM | > 10 µM |  |  |  |
| CCCOc1nn(CCC)cc1C(=O)Nc1ccc(F)c(Cl)c1 [TT0000352, N-(3-chloro-4-fluorophenyl)-3-propoxy-1-propyl-1H-pyrazole-4-carboxamide] | > 30 µM | 3 µM | 100% | 33% | 0.48 µM | 0.14 µM |  |  |  |
| CCCOc1nn(CCC)cc1C(=O)Nc1ccccc1 [TT0000363, N-phenyl-3-propoxy-1-propyl-1H-pyrazole-4-carboxamide] | > 30 µM | 0.001 µM | 100% | 15% | > 30 µM | > 30 µM |  |  |  |
| CCCOc1nn(CCC)cc1C(=O)Nc1ccc(C#N)cc1 [TT0000366, N-(4-cyanophenyl)-3-propoxy-1-propyl-1H-pyrazole-4-carboxamide] | > 30 µM | 3 µM | 100% | 28% | 0.0054 µM | > 30 µM |  |  |  |
| CCCOc1nn(CCC)cc1C(=O)Nc1ccc(C(F)(F)F)c(F)c1 [TT0000367, N-(3-fluoro-4-(trifluoromethyl)phen-yl)-3-propoxy-1-propyl-1H-pyrazole-4-carboxamide] | > 30 µM | 0.01 µM | 100% | 21% | > 30 µM | > 30 µM |  |  | suppression score dose response compared with other compounds as suppressor of the hyperexcitability phenotype ([1]; zebrafish, FIG. 8 / FIG. 10): outperform the other compounds tested |
| CCCOc1nn(CCC)cc1C(=O)Nc1ccc(C(F)(F)F)c(Cl)c1 [TT0000369, N-(3-chloro-4-(trifluoromethyl)phen-yl)-3-propoxy-1-propyl-1H-pyrazole-4-carboxamide] | > 30 µM | 3 µM | 100% | 35% | 1.54 µM | 2.63 µM |  |  |  |
| CCCOc1nn(CCC)cc1C(=O)Nc1ccc(C(F)(F)F)c(C)c1 [TT0000372, N-(3-methyl-4-(trifluoromethyl)phen-yl)-3-propoxy-1-propyl-1H-pyrazole-4-carboxamide] | > 30 µM | 10 µM | 100% | 31% | 9.5 µM | 1.6 µM |  |  |  |
| COc1cc(C)c(Br)cc1S(=O)(=O)NCCN1CCOCC1 [TT0027052, 5-bromo-2-methoxy-4-methyl-N-(2-morpholinoethyl)benzene-sulfonamide] |  |  |  |  |  |  | 5 µM | 20 µM |  |
| COc1cc(C)c(C)cc1S(=O)(=O)NCCN1CCOCC1 [TT0038280, 2-methoxy-4,5-dimethyl-N-(2-morpholinoethyl)benzene-sulfonamide] |  |  |  |  |  |  | 40 µM | 80 µM |  |
| CCOc1ccc(Br)cc1S(=O)(=O)NCCN1CCOCC1 [TT0048134, 5-bromo-2-ethoxy-N-(2-morpholinoethyl)benzene-sulfonamide] |  |  |  |  |  |  | 15 µM | 20 µM |  |
| COc1cc(C)c(C(C)C)cc1S(=O)(=O)NCC1CCCO1 (stereo not shown) [TT0048274, 5-isopropyl-2-methoxy-4-methyl-N-((tetrahydrofuran-2-yl)methyl)benzenesulfonamide] |  |  |  |  |  |  | > 160 µM | >160 µM |  |
| COc1ccc(C(C)C)cc1S(=O)(=O)NCCN1CCOCC1 [TT0048803, 5-isopropyl-2-methoxy-N-(2-morpholinoethyl)benzene-sulfonamide] |  |  |  |  |  |  | < 5 µM | 20 µM |  |
| COc1cc(S(=O)(=O)NCCN2CCOCC2)c(OC)cc1C [TT0048874, 2,5-dimethoxy-4-methyl-N-(2-morpholinoethyl)benzene-sulfonamide] |  |  |  |  |  |  | 40 µM | 160 µM |  |
| CN1C(=O)CN=C(c2ccccc2)c2cc(Cl)ccc21 [diazepam] |  |  |  |  |  |  |  |  | prevention of the formation of the PTZ-induced behavior ([2]; zebrafish, in vivo): almost completely prevented |
| CC(=O)[C@H]1CC[C@H]2[C@@H]3CC[C@H]4C[C@](C)(O)CC[C@]4(C)[C@H]3CC[C@]12C [ganaxolone] |  |  |  |  |  |  |  |  | prevention of the formation of the PTZ-induced behavior ([2]; pre-treatment, non-sedative concentration 0.31 μM, data not shown): almost completely prevented |
| O=C1NC(=O)C(c2ccccc2)(c2ccccc2)N1 [phenytoin] |  |  |  |  |  |  |  |  | prevention of the formation of the PTZ-induced behavior ([2]; pre-treatment, 160 μM, data not shown): almost no effect |
| Cc1ccsc1C(=CCCN1CCC[C@@H](C(=O)O)C1)c1sccc1C [tiagabine, reference compound] |  |  |  |  |  |  |  |  | rescue of the behavioral profile induced by KCC2 inhibition (rescue score 0-1) ([1]; phenotype caused by 2.5 μM VU0463271 or 5 μM VU0240551, at least six concentrations): most effective; prevention of the formation of the PTZ-induced behavior ([2]; pre-treatment, non-sedative concentration 40 μM, data not shown): almost completely prevented |

— patent publication US20180161310A1, “COMPOUNDS AND METHODS FOR THE TREATMENT OF NEUROLOGICAL DISORDERS” (Teleos Therapeutics, LLC, priority 2016, published 2018)
